For experiment [1], the target named is T1, epithelial sodium channel (Canis lupus familiaris, UniProt A0A8I3MKE6+A0A8I3Q679+Q95165).
T1 construct: endogenous in cells; host or cells: primary canine bronchial epithelial cells cultured at air-liquid interface
T1 sequence (A0A8I3Q679 1-649): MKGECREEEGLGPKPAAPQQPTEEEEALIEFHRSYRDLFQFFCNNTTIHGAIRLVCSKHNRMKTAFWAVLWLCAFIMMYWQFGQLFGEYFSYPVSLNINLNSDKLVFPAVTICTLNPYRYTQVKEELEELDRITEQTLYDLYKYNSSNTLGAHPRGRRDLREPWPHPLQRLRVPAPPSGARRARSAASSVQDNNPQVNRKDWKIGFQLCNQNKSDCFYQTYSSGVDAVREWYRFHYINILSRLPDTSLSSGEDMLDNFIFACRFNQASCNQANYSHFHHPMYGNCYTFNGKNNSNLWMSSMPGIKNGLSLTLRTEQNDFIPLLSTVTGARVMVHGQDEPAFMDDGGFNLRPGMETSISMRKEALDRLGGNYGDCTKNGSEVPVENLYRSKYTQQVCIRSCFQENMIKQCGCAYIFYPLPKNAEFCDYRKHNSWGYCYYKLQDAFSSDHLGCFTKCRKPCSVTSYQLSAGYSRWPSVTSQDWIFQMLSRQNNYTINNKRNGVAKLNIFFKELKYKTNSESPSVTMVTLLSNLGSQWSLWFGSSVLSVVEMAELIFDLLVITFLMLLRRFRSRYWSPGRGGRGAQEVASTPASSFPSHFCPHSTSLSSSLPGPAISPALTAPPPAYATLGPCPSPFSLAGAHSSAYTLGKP
T1 sequence (Q95165 1-641): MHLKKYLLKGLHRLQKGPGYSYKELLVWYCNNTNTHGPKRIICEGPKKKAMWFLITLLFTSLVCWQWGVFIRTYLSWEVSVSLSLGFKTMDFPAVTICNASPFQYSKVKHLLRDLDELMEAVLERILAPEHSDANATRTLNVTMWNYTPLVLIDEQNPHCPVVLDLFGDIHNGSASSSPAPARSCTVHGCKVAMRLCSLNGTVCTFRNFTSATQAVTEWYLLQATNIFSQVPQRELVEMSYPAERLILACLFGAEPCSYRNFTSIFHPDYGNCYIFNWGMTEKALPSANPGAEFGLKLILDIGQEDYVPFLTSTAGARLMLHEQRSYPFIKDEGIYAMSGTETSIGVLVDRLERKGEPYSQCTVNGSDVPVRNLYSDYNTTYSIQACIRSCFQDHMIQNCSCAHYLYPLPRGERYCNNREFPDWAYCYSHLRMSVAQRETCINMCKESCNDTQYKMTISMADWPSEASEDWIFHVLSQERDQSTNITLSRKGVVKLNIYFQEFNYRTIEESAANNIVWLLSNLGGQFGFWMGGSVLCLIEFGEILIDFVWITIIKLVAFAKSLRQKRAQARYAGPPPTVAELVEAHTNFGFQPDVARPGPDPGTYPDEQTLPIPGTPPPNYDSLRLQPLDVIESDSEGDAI
T1 sequence (A0A8I3MKE6 1-646): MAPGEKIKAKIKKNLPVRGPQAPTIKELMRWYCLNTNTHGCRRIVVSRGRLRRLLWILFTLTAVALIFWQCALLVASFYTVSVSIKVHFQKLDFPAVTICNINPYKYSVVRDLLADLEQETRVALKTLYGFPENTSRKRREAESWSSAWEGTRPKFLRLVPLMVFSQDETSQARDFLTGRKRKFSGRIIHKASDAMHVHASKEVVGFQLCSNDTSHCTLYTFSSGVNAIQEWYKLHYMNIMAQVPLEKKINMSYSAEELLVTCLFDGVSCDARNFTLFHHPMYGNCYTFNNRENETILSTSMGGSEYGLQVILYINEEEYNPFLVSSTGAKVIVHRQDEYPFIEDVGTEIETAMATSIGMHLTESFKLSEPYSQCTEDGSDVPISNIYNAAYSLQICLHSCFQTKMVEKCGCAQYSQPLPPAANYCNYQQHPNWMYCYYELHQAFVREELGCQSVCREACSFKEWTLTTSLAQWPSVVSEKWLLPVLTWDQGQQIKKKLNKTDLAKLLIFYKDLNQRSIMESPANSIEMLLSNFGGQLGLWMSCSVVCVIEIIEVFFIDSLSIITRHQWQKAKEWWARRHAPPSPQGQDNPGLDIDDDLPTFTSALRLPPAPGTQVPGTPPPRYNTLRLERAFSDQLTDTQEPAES
Put plainly: Inhibition of short-circuit current (ISC) in airway epithelial monolayers in Ussing chambers. The format is cell-based, canine. Here is the method: One assay used to assess mechanism of action and/or potency of the compounds of the present invention involves the determination of lumenal drug inhibition of airway epithelial sodium currents measured under short circuit current (ISC) using airway epithelial monolayers mounted in Using chambers. Cells obtained from freshly excised human, dog, sheep or rodent airways are seeded onto porous 0.4 micron Snapwelff Inserts (CoStar), cultured at air-liquid interface (ALI) conditions in hormonally defined media, and assayed for sodium transport activity (ISC) while bathed in Krebs Bicarbonate Ringer (KBR) in Using chambers. All test drug additions are to the lumenal bath with half-log dose addition protocols (from 1×10^−11 M to 3×10^−5 M), and the cumulative change in ISC (inhibition) recorded. All drugs are prepared in dimethyl sulfoxide as stock solutions at a concentration of 1×10^−2 M and stored at −20° C. […] After the maximal concentration ([…]) is administered, the lumenal bath is exchanged three times with fresh drug-free KBR solution, and the resultant ISC measured after each wash for approximately 5 minutes in duration. Reversibility is defined as the percent return to the baseline value for sodium current after the third wash. All data from the voltage clamps are collected via a computer interface and analyzed off-line.
Dose-effect relationships for all compounds are considered and analyzed by the Prism 3.0 program.

For the next experiment, the system named is Sheep MCC. The experiment can be described thus: Mucociliary clearance (MCC) studies in sheep. The format is in vivo. The conditions noted are these: sheep, 0.24 nmol/kg (3 μM); for effect on MCC compared to vehicle: 4 h post-dose; for AUC (% Cl-h) / Initial Slope (4.0-4.5 h): aerosol, MCC at 4 h post-dose. Here is the method:
The animal model that has been used most often to measure changes in MCC is the sheep model. The effect of compounds for enhancing mucociliary clearance (MCC) can be measured using an in vivo model described by Sabater et al., Journal of Applied Physiology, 1999, pp. 2191-2196, incorporated herein by reference.
In these studies, adult sheep were restrained and nasally intubated with an endotracheal tube. Aerosolized test articles were administered over 10-15 minutes to sheep. Radiolabeled ^99mTc-sulfur colloid (TSC, 3.1 mg/mL; containing approximately 20 mCi) was then administered at a specified time four or eight hours after test article. The radiolabeled aerosol was administered through the endotracheal tube for about 5 minutes. The sheep were then extubated, and total radioactive counts in the lung were measured every 5 minutes for a 1-hour observation period. The rate of radiolabel clearance from the lung is representative of the MCC rate in the animal. The advantage of this system is that it closely simulates the human lung environment. The model also allows for the collection of simultaneous PK/PD information through plasma and urine sampling over the test period. There are also several techniques to measure the drug concentrations on the airway surface during the MCC measurements. These include the collection of exhaled breath condensates or a filter paper method to obtain ASL via bronchoscopy.
The ovine model described above was used to evaluate the in vivo effects (efficacy/durability) of aerosol-delivered test agent on MCC. Treatments consisting of either 4 mL of test agent or test agent in combination with HS were tested. To determine if combining HS with test agent enhanced MCC, HS was administered immediately following test agent administration. Test solutions were aerosolized using a Raindrop nebulizer at a flowrate of eight liters per minute and connected to a dosimetry system consisting of a solenoid valve and a source of compressed air (20 psi). The deposited dose of drug in sheep lungs after an aerosol administration using the Raindrop nebulizer is estimated to be 8-15% of the dose. Using a Raindrop nebulizer, radiolabeled TSC was administered over approximately 3 minutes either 4 or 8 hours after drug treatment to evaluate efficacy/durability. Radioactive counts were measured in a central region in the right lung at 5 min intervals for one hour with a gamma camera. Three methods of analysis were utilized, 1) initial rate of clearance (slope) over the first 30 min fitted using linear regression 2) area under the curve for % clearance over time over one hour, and 3) the maximum clearance obtained in one hour.

[2] abbreviates: canine bronchial epithelial cells, short-circuit current, read-out: Potency of Sodium Channel Blockade IC50.

Like-named read-outs stand apart in the source and are kept apart here. Marks after values point to notes of the source that are not given here.

Turning to `N=C(NCCCCc1ccc(C[C@H](N)C(=O)Nc2ccc(CCCCCCN(C[C@H](O)[C@@H](O)[C@H](O)[C@H](O)CO)C[C@H](O)[C@@H](O)[C@H](O)[C@H](O)CO)cc2)c2ccccc12)NC(=O)c1nc(Cl)c(N)nc1N` [Compound 48, 3,5-diamino-N—(N-(4-(4-((S)-2-amino-3-(4-(6-(bis((2S,3R,4R,5R)-2,3,4,5,6-pentahydroxyhexyl)amino)hexyl)phenylamino)-3-oxopropyl)naphthalen-1-yl)butyl)carbamimidoyl)-6-chloropyrazine-2-carboxamide], the IC50 (usually the concentration at which inhibition is half-maximal) in experiment [1] (setting [2]) is 47 nM. Moreover, in the experiment on Sheep MCC, the “effect on MCC compared to vehicle” value is reported as “Similarly Enhance MCC Compared to Vehicle”, the “AUC (% Cl-h)” value was 15.4* (2) % Cl-h and the “Initial Slope (4.0-4.5 h)” value is on record as 29.8* (2). Regarding `N=C(NCCCCc1ccc2cc(C[C@H](N)C(=O)Nc3ccc(CCCN(C[C@H](O)[C@@H](O)[C@H](O)[C@H](O)CO)C[C@H](O)[C@@H](O)[C@H](O)[C@H](O)CO)cc3)ccc2c1)NC(=O)c1nc(Cl)c(N)nc1N` [Compound 94, 3,5-diamino-N—(N-(4-(6-((S)-2-amino-3-(4-(3-(bis((2S,3R,4R,5R)-2,3,4,5,6-pentahydroxyhexyl)amino)propyl)phenylamino)-3-oxopropyl)naphthalen-2-yl)butyl)carbamimidoyl)-6-chloropyrazine-2-carboxamide], the concentration for half-maximal inhibition (IC50) in experiment [1] (setting [2]) was found to be 21.2 nM. Same read-out and setting: the value for `N=C(NCCCCc1ccc2cc(C[C@H](N)C(=O)Nc3ccc(CCCNC[C@H](O)[C@@H](O)[C@H](O)[C@H](O)CO)cc3)ccc2c1)NC(=O)c1nc(Cl)c(N)nc1N` [Compound 99, 3,5-diamino-N—(N-(4-(6-((S)-2-amino-3-oxo-3-(4-(3-((2S,3R,4R,5R)-2,3,4,5,6-pentahydroxyhexylamino)propyl)phenylamino)propyl)naphthalen-2-yl)butyl)carbamimidoyl)-6-chloropyrazine-2-carboxamide] was 7.6 nM; that for `CN(C)CCCc1ccc(NC(=O)[C@@H](N)Cc2ccc3cc(CCCCNC(=N)NC(=O)c4nc(Cl)c(N)nc4N)ccc3c2)cc1` [Compound 103, (S)-3,5-diamino-N—(N-(4-(6-(2-amino-3-(4-(3-(dimethylamino)propyl)phenylamino)-3-oxopropyl)naphthalen-2-yl)butyl)carbamimidoyl)-6-chloropyrazine-2-carboxamide] was 17.9 nM. On to `CCCCCCN(CCCc1ccc(NC(=O)[C@@H](N)Cc2ccc(CCCCNC(=N)NC(=O)c3nc(Cl)c(N)nc3N)c3c2CCCC3)cc1)C[C@H](O)[C@@H](O)[C@H](O)[C@H](O)CO` [Compound 123, 3,5-diamino-N—(N-(4-(4-((S)-2-amino-3-(4-(3-(hexyl((2S,3R,4R,5R)-2,3,4,5,6-pentahydroxyhexyl)amino)propyl)phenylamino)-3-oxopropyl)-5,6,7,8-tetrahydronaphthalen-1-yl)butyl)carbamimidoyl)-6-chloropyrazine-2-carboxamide], for which the half-maximal inhibitory concentration (IC50) in experiment [1] (setting [2]) was determined as 2.3 nM. In the experiment with Sheep MCC, the “effect on MCC compared to vehicle” value is reported as “Similarly Enhance MCC Compared to Vehicle”, the “AUC (% Cl-h)” value is on record as 14.4* (2) % Cl-h and the “Initial Slope (4.0-4.5 h)” value is recorded as 29.2* (2).

For `N=C(NCCCCc1ccc(C[C@H](N)C(=O)Nc2ccc(CCCN(C[C@H](O)[C@@H](O)[C@H](O)[C@H](O)CO)C[C@H](O)[C@@H](O)[C@H](O)[C@H](O)CO)cc2)c2c1CCCC2)NC(=O)c1nc(Cl)c(N)nc1N` [Compound 127, 3,5-diamino-N—(N-(4-(4-((S)-2-amino-3-(4-(3-(bis((2S,3R,4R,5R)-2,3,4,5,6-pentahydroxyhexyl)amino)propyl)phenylamino)-3-oxopropyl)-5,6,7,8-tetrahydronaphthalen-1-yl)butyl)carbamimidoyl)-6-chloropyrazine-2-carboxamide], the IC50 in experiment [1] (setting [2]) is 8.6 nM.

Turning to `NC(=NC(=O)c1nc(Cl)c(N)nc1N)NCCCCc1ccc(C[C@H](N)C(=O)Nc2ccc(CCCNC[C@H](O)[C@@H](O)[C@H](O)[C@H](O)CO)cc2)c2c1CCCC2` [Compound 131], the IC50 in experiment [1] amounted to 6 nM. Take `CN(C)CCCc1ccc(NC(=O)[C@@H](N)Cc2ccc(CCCCNC(=N)NC(=O)c3nc(Cl)c(N)nc3N)c3c2CCCC3)cc1` [Compound 135, (S)-3,5-diamino-N—(N-(4-(4-(2-amino-3-(4-(3-(dimethylamino)propyl)phenylamino)-3-oxopropyl)-5,6,7,8-tetrahydronaphthalen-1-yl)butyl)carbamimidoyl)-6-chloropyrazine-2-carboxamide]: in experiment [1] (setting [2]), the half-maximal inhibitory concentration (IC50) was 5.2 nM. For `N=C(NCCCCc1ccc(C[C@H](N)C(=O)O)c2c1CCCC2)NC(=O)c1nc(Cl)c(N)nc1N` [Compound 139, (S)-2-amino-3-(4-(4-(3-(3,5-diamino-6-chloropyrazine-2-carbonyl)guanidino)butyl)-5,6,7,8-tetrahydronaphthalen-1-yl)propanoic acid], the concentration for half-maximal inhibition (IC50) in experiment [1] (setting [2]) turned out to be 73.7 nM.
